# Data from article PMC8500670, “A selective WDR5 degrader inhibits acute myeloid leukemia in patient-derived mouse models” (Science translational medicine, 2021).
# Tests used:
# Assay in all cases: biochemical
# Set-up in all cases: kinase selectivity panel, activity as per cent of control, single concentration in duplicate
# Settings in all cases: read-out: % of control remaining
# FGFR3(h) = FGFR3(h) (Homo sapiens, UniProt P22607)
# Description: (§1) We next assessed selectivity of MS67 against 22 protein methyltransferases (table S2) and a broad panel of common drug targets including 45 kinases (table S3) and 44 G protein–coupled receptors (GPCR), ion channels, and transporters (table S4). […] We subsequently determined that MS67 had moderate binding affinity (Ki = 1.0 ± 0.8 μM) to Sigma 2 receptor (fig. S10).
# EphA2(h) = EphA2(h) (Homo sapiens, UniProt P29317)
# Description: as §1
# IR(h) = target: T1, IR(h) (Homo sapiens, UniProt P06213)
# T1 construct: gene INSR
# Description: as §1
# MAPKAP-K2(h) = target: T2, MAPKAP-K2(h) (Homo sapiens, UniProt P49137)
# T2 construct: gene MAPKAPK2
# Description: as §1
# Met(h) = Met(h) (Homo sapiens, UniProt P08581)
# Description: as §1
# PDK1(h) = target: T3, PDK1(h) (Homo sapiens, UniProt O15530)
# T3 construct: gene PDPK1
# Description: as §1
# c-RAF(h) = target: T4, c-RAF(h) (Homo sapiens, UniProt P04049)
# T4 construct: gene RAF1
# Description: as §1
# NEK2(h) = NEK2(h) (Homo sapiens, UniProt P51955)
# Description: as §1
# Pim-2(h) = target: T5, Pim-2(h) (Homo sapiens, UniProt Q9P1W9)
# T5 construct: gene PIM2
# Description: as §1
# EphB4(h) = EphB4(h) (Homo sapiens, UniProt P54760)
# Description: as §1
# JAK3(h) = JAK3(h) (Homo sapiens, UniProt P52333)
# Description: as §1
# Plk1(h) = Plk1(h) (Homo sapiens, UniProt P53350)
# Description: as §1
# IRAK4(h) = IRAK4(h) (Homo sapiens, UniProt Q9NWZ3)
# Description: as §1
# FGFR1(h) = FGFR1(h) (Homo sapiens, UniProt P11362)
# Description: as §1
# IKKα(h) = target: T6, IKKα(h) (Homo sapiens, UniProt O15111)
# T6 construct: gene CHUK
# Description: as §1
# CHK2(h) = target: T7, CHK2(h) (Homo sapiens, UniProt O96017)
# T7 construct: gene CHEK2
# Description: as §1
# CHK1(h) = target: T8, CHK1(h) (Homo sapiens, UniProt O14757)
# T8 construct: gene CHEK1
# Description: as §1
# GSK3β(h) = target: T9, GSK3β(h) (Homo sapiens, UniProt P49841)
# T9 construct: gene GSK3B
# Description: as §1
# PKCβII(h) = target: T10, PKCβII(h) (Homo sapiens, UniProt P05771)
# T10 construct: gene PRKCB; isoform betaII
# Description: as §1
# SAPK2a(h) = target: T11, SAPK2a(h) (Homo sapiens, UniProt Q16539)
# T11 construct: gene MAPK14
# Description: as §1
# MAP4K4(h) = MAP4K4(h) (Homo sapiens, UniProt O95819)
# Description: as §1
# CaMKIIα(h) = target: T12, CaMKIIα(h) (Homo sapiens, UniProt Q9UQM7)
# T12 construct: gene CAMK2A
# Description: as §1
# PKA(h) = target: T13, PKA(h) (Homo sapiens, UniProt P17612)
# T13 construct: gene PRKACA
# Description: as §1
# EphA3(h) = EphA3(h) (Homo sapiens, UniProt P29320)
# Description: as §1
# TrkA(h) = target: T14, TrkA(h) (Homo sapiens, UniProt P04629)
# T14 construct: gene NTRK1
# Description: as §1
# T4 sequence (P04049 whole entry): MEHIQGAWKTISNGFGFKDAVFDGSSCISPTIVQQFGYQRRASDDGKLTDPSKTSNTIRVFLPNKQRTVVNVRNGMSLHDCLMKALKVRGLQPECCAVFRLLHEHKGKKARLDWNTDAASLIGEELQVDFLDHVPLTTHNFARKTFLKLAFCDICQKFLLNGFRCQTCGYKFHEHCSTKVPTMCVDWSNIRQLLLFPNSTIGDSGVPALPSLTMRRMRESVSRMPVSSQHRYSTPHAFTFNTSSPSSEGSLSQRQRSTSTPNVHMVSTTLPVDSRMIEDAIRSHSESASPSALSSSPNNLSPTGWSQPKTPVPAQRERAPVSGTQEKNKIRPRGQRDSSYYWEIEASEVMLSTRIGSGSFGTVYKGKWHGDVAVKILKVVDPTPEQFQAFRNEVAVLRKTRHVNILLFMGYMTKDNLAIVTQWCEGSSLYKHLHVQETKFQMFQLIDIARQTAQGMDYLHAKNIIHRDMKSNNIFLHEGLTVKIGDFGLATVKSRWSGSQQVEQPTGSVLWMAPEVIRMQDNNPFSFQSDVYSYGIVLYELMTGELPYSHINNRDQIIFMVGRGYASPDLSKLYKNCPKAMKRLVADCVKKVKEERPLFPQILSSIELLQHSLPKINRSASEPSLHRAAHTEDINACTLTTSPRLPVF
# Chain of EphA3(h) (P29320 whole entry): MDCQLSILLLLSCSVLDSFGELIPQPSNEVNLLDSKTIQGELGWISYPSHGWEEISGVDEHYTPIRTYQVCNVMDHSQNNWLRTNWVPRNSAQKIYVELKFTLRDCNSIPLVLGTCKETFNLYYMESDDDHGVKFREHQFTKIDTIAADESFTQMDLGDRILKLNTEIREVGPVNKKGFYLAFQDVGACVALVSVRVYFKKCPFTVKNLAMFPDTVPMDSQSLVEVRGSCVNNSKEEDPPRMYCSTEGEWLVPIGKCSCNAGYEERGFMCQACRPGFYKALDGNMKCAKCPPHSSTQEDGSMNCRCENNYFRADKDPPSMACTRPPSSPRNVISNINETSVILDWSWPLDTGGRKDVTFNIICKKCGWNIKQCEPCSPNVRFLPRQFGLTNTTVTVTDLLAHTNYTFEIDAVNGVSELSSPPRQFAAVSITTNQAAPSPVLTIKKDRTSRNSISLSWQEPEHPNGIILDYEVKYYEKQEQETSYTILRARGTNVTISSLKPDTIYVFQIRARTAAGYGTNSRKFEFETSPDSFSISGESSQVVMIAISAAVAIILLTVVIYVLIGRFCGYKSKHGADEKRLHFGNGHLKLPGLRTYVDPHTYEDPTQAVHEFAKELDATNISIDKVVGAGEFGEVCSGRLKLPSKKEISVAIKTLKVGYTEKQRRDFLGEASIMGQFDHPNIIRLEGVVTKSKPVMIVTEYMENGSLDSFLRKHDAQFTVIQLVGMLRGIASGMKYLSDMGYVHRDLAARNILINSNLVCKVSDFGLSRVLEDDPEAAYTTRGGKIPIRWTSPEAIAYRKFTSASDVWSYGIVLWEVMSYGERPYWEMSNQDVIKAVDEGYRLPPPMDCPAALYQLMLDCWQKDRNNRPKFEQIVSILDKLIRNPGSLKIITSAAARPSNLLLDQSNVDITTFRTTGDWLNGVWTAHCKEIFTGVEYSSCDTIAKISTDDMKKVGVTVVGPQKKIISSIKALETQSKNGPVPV
# T14 sequence (P04629 whole entry): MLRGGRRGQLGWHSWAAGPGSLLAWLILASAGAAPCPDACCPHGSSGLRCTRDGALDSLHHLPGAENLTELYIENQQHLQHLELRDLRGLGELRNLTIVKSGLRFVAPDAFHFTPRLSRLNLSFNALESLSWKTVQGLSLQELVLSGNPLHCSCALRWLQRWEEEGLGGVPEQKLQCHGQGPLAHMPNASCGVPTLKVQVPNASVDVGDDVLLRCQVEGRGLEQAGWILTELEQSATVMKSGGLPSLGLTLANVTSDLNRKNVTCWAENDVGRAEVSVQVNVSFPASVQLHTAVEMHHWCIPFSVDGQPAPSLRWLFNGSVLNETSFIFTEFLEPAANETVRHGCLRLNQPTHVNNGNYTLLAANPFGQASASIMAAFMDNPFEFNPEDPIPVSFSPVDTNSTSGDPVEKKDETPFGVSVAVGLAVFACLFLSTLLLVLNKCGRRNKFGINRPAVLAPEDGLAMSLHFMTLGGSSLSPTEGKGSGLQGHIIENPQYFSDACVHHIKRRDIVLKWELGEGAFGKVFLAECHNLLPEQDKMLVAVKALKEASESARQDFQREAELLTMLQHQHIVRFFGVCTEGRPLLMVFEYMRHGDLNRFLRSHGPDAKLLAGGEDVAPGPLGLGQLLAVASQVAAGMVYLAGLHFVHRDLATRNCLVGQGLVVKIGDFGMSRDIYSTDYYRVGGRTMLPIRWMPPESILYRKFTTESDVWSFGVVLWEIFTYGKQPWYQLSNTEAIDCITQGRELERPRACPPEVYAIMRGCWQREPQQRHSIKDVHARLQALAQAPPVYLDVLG
# Chain of NEK2(h) (P51955 whole entry): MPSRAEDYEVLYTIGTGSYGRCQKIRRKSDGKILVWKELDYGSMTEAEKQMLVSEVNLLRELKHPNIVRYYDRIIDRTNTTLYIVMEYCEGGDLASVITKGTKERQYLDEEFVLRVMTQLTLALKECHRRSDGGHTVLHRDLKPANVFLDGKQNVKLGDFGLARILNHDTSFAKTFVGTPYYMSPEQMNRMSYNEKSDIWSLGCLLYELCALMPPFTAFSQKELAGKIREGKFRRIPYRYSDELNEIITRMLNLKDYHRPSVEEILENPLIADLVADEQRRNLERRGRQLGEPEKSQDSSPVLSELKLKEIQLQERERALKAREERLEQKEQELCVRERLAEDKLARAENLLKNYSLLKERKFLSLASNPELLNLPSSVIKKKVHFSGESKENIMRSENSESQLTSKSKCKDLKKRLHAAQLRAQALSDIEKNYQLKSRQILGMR
# Chain of MAP4K4(h) (O95819 whole entry): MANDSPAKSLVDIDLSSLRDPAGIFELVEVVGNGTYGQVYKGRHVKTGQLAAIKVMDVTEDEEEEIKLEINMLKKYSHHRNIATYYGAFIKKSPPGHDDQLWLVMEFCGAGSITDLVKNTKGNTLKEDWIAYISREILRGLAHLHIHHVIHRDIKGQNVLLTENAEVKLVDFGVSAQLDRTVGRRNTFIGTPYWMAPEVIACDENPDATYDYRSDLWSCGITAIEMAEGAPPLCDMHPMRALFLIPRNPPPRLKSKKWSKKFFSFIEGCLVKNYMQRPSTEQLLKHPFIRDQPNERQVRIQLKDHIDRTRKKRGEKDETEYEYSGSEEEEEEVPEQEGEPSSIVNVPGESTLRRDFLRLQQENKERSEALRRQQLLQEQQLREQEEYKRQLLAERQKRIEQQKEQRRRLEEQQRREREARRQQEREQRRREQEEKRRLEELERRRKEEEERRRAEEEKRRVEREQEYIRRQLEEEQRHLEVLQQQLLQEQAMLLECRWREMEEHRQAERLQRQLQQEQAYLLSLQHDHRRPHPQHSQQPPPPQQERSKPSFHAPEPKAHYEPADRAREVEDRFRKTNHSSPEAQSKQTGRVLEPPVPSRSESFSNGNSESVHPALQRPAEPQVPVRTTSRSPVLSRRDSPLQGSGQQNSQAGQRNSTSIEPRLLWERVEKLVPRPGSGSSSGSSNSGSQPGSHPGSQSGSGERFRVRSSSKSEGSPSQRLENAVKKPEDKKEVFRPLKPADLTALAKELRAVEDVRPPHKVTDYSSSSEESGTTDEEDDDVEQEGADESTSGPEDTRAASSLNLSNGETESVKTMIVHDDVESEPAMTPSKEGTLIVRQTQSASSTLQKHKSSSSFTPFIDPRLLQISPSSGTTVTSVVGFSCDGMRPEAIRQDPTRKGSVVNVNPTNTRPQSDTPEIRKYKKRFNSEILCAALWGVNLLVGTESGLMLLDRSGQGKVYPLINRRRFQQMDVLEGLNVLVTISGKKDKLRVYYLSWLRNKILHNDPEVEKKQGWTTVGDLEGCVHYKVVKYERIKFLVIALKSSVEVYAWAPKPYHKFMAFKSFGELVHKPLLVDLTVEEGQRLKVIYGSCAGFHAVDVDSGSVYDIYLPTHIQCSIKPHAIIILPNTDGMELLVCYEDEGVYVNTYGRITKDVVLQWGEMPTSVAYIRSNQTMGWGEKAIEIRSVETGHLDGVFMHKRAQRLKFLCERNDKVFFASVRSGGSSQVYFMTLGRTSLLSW
# Chain of Plk1(h) (P53350 whole entry): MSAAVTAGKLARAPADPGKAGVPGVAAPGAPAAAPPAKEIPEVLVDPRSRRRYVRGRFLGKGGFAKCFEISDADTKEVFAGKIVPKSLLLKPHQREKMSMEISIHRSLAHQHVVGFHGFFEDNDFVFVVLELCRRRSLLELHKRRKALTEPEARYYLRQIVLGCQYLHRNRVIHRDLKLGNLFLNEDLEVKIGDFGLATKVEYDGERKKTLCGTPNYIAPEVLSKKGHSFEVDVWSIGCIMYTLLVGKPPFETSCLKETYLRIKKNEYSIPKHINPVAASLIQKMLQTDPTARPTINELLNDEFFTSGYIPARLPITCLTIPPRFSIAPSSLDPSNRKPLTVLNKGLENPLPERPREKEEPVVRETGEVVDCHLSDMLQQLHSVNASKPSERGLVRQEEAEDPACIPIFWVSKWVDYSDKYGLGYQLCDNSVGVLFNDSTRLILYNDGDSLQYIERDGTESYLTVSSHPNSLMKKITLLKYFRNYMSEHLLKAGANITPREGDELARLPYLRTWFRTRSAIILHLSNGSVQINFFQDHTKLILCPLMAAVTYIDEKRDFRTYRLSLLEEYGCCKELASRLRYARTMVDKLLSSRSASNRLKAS
# T5 sequence (Q9P1W9 whole entry): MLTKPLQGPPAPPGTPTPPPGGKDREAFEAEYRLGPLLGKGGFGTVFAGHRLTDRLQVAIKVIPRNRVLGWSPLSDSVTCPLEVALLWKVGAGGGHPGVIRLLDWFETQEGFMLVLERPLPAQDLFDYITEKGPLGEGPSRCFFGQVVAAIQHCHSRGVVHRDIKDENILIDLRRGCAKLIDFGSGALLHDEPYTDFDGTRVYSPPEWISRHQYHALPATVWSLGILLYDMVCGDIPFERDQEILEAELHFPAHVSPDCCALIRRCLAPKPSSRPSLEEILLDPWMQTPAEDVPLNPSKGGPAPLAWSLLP
smiles,measurement,setting,value
Cc1ncsc1-c1ccc([C@H](C)NC(=O)[C@@H]2C[C@@H](O)CN2C(=O)[C@@H](NC(=O)CNC(=O)c2ccc(F)c(-c3ccc(N4C[C@@H](C)N(C)[C@@H](C)C4)c(NC(=O)c4c[nH]c(=O)cc4C(F)(F)F)c3)c2)C(C)(C)C)cc1 [MS67],remaining activity at 1 µM,FGFR3(h),104%
same,remaining activity at 1 µM,EphA2(h),80%
same,remaining activity at 1 µM,IR(h),87%
same,remaining activity at 1 µM,MAPKAP-K2(h),104%
same,remaining activity at 1 µM,Met(h),88%
same,remaining activity at 1 µM,PDK1(h),110%
same,remaining activity at 1 µM,c-RAF(h),87%
same,remaining activity at 1 µM,NEK2(h),111%
same,remaining activity at 1 µM,Pim-2(h),99%
same,remaining activity at 1 µM,EphB4(h),150%
same,remaining activity at 1 µM,JAK3(h),100%
same,remaining activity at 1 µM,Plk1(h),87%
same,remaining activity at 1 µM,IRAK4(h),109%
same,remaining activity at 1 µM,FGFR1(h),105%
same,remaining activity at 1 µM,IKKα(h),96%
same,remaining activity at 1 µM,CHK2(h),97%
same,remaining activity at 1 µM,CHK1(h),78%
same,remaining activity at 1 µM,GSK3β(h),110%
same,remaining activity at 1 µM,PKCβII(h),112%
same,remaining activity at 1 µM,SAPK2a(h),99%
same,remaining activity at 1 µM,MAP4K4(h),100%
same,remaining activity at 1 µM,CaMKIIα(h),92%
same,remaining activity at 1 µM,PKA(h),107%
same,remaining activity at 1 µM,EphA3(h),125%
same,remaining activity at 1 µM,TrkA(h),94%
